PubChem BioAssay (NCI)
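Values below derive from 48-hour exposures of cells grown in 96-well plates, with endpoints linearly interpolated between the two concentrations bracketing the appropriate inhibition level. The concentration for 50% growth inhibition is given as GI50. TGI: total growth inhibition.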

How the values were obtained:
Test in all cases: DTP human tumour cell line panel, 48 h
SK-OV-3 ovarian = system: SK-OV-3 ovarian
HT29 colon = system: HT29 colon
ACHN renal = system: ACHN renal
OVCAR-3 ovarian = system: OVCAR-3 ovarian
NCI-H460 lung = system: NCI-H460 lung
HCT-116 colon = system: HCT-116 colon
K-562 leukemia = system: K-562 leukemia
BT-549 breast = system: BT-549 breast
A498 renal = system: A498 renal
T-47D breast = system: T-47D breast
OVCAR-4 ovarian = system: OVCAR-4 ovarian
OVCAR-5 ovarian = system: OVCAR-5 ovarian
SW-620 colon = system: SW-620 colon
MDA-MB-231 breast = system: MDA-MB-231 breast
SNB-75 CNS = system: SNB-75 CNS
CAKI-1 renal = system: CAKI-1 renal
SF-295 CNS = system: SF-295 CNS
M14 melanoma = system: M14 melanoma
SK-MEL-28 melanoma = system: SK-MEL-28 melanoma
EKVX NSCLC = system: EKVX NSCLC
786-0 renal = system: 786-0 renal
SF-268 CNS = system: SF-268 CNS
MDA-MB-435 = system: MDA-MB-435
IGROV1 ovarian = system: IGROV1 ovarian
NCI-H23 lung = system: NCI-H23 lung
MOLT-4 leukemia = system: MOLT-4 leukemia
NCI-H522 lung = system: NCI-H522 lung
OVCAR-8 ovarian = system: OVCAR-8 ovarian
SN12C renal = system: SN12C renal
SK-MEL-5 melanoma = system: SK-MEL-5 melanoma
NCI/ADR-RES ovarian = system: NCI/ADR-RES ovarian
SR leukemia = system: SR leukemia
MCF7 breast = system: MCF7 breast
DU-145 prostate = system: DU-145 prostate
TK-10 renal = system: TK-10 renal
HOP-62 NSCLC = system: HOP-62 NSCLC
A549 NSCLC = system: A549 NSCLC
HCT-15 colon = system: HCT-15 colon
RXF 393 renal = system: RXF 393 renal
SK-MEL-2 melanoma = system: SK-MEL-2 melanoma
LOX IMVI melanoma = system: LOX IMVI melanoma
HS 578T breast = system: HS 578T breast
COLO 205 colon = system: COLO 205 colon
HCC-2998 colon = system: HCC-2998 colon
UO-31 renal = system: UO-31 renal
NCI-H226 lung = system: NCI-H226 lung
SNB-19 CNS = system: SNB-19 CNS
UACC-62 melanoma = system: UACC-62 melanoma
U251 CNS = system: U251 CNS
SF-539 CNS = system: SF-539 CNS
UACC-257 melanoma = system: UACC-257 melanoma
HL-60(TB) leukemia = system: HL-60(TB) leukemia
KM12 colon = system: KM12 colon

COc1ccc(C[C@H]2C[C@@H](O)[C@@H](C)C/C=C/Cc3cccc(O)c3C(=O)O2)cn1
GI50 (SK-OV-3 ovarian): 45.6 µM | TGI (SK-OV-3 ovarian): > 100 µM | GI50 (HT29 colon): 31 µM | TGI (HT29 colon): > 100 µM | GI50 (ACHN renal): 25.5 µM | TGI (ACHN renal): 65.9 µM | GI50 (OVCAR-3 ovarian): 50.5 µM | TGI (OVCAR-3 ovarian): > 100 µM | GI50 (NCI-H460 lung): 22.7 µM | TGI (NCI-H460 lung): 96.3 µM | GI50 (HCT-116 colon): 19.5 µM | TGI (HCT-116 colon): 37.6 µM | GI50 (K-562 leukemia): 12.2 µM | TGI (K-562 leukemia): 28.6 µM | GI50 (BT-549 breast): 20.7 µM | TGI (BT-549 breast): 48.8 µM | GI50 (A498 renal): 0.712 µM | TGI (A498 renal): 31.4 µM | GI50 (T-47D breast): 33.1 µM | TGI (T-47D breast): > 100 µM | GI50 (OVCAR-4 ovarian): 23.7 µM | TGI (OVCAR-4 ovarian): 74.1 µM | GI50 (OVCAR-5 ovarian): 19 µM | TGI (OVCAR-5 ovarian): 37.2 µM | GI50 (SW-620 colon): 31.6 µM | TGI (SW-620 colon): > 100 µM | GI50 (MDA-MB-231 breast): 16.4 µM | TGI (MDA-MB-231 breast): 39.6 µM | GI50 (SNB-75 CNS): 17 µM | TGI (SNB-75 CNS): 73.4 µM | GI50 (CAKI-1 renal): 21.8 µM | TGI (CAKI-1 renal): 54.6 µM | GI50 (SF-295 CNS): 18 µM | TGI (SF-295 CNS): 41.5 µM | GI50 (M14 melanoma): 18.7 µM | TGI (M14 melanoma): 36.6 µM | GI50 (SK-MEL-28 melanoma): 27.2 µM | TGI (SK-MEL-28 melanoma): 78.7 µM | GI50 (EKVX NSCLC): 32.1 µM | TGI (EKVX NSCLC): > 100 µM | GI50 (786-0 renal): 18 µM | TGI (786-0 renal): 77.7 µM | GI50 (SF-268 CNS): 15.9 µM | TGI (SF-268 CNS): 53.5 µM | GI50 (MDA-MB-435): 19.9 µM | TGI (MDA-MB-435): 46.6 µM | GI50 (IGROV1 ovarian): 13 µM | TGI (IGROV1 ovarian): 34.4 µM | GI50 (NCI-H23 lung): 24.2 µM | TGI (NCI-H23 lung): 56.8 µM | GI50 (MOLT-4 leukemia): 35.4 µM | TGI (MOLT-4 leukemia): > 100 µM | GI50 (NCI-H522 lung): 14.2 µM | TGI (NCI-H522 lung): 49.1 µM | GI50 (OVCAR-8 ovarian): 29.4 µM | TGI (OVCAR-8 ovarian): > 100 µM | GI50 (SN12C renal): 19.4 µM | TGI (SN12C renal): 43.9 µM | GI50 (SK-MEL-5 melanoma): 17.6 µM | TGI (SK-MEL-5 melanoma): 35.1 µM | GI50 (NCI/ADR-RES ovarian): 19.1 µM | TGI (NCI/ADR-RES ovarian): 48.8 µM | GI50 (SR leukemia): 7.44 µM | TGI (SR leukemia): 33.7 µM | GI50 (MCF7 breast): 19.5 µM | TGI (MCF7 breast): 66.6 µM | GI50 (DU-145 prostate): 27.7 µM | TGI (DU-145 prostate): > 100 µM | GI50 (TK-10 renal): 24.5 µM | TGI (TK-10 renal): 72.3 µM | GI50 (HOP-62 NSCLC): 18.6 µM | TGI (HOP-62 NSCLC): 40.2 µM | GI50 (A549 NSCLC): 28.6 µM | TGI (A549 NSCLC): > 100 µM | GI50 (HCT-15 colon): 28.9 µM | TGI (HCT-15 colon): 88.8 µM | GI50 (RXF 393 renal): 30.5 µM | TGI (RXF 393 renal): > 100 µM | GI50 (SK-MEL-2 melanoma): 14.7 µM | TGI (SK-MEL-2 melanoma): 34.5 µM | GI50 (LOX IMVI melanoma): 19.1 µM | TGI (LOX IMVI melanoma): 37.7 µM | GI50 (HS 578T breast): 14.4 µM | TGI (HS 578T breast): 36.7 µM | GI50 (COLO 205 colon): 34 µM | TGI (COLO 205 colon): > 100 µM | GI50 (HCC-2998 colon): 17.4 µM | TGI (HCC-2998 colon): 44.8 µM | GI50 (UO-31 renal): 19.9 µM | TGI (UO-31 renal): 66.1 µM | GI50 (NCI-H226 lung): 27.3 µM | TGI (NCI-H226 lung): > 100 µM | GI50 (SNB-19 CNS): 38.9 µM | TGI (SNB-19 CNS): > 100 µM | GI50 (UACC-62 melanoma): 22.1 µM | TGI (UACC-62 melanoma): 64.2 µM | GI50 (U251 CNS): 17.9 µM | TGI (U251 CNS): 36.1 µM | GI50 (SF-539 CNS): 17.9 µM | TGI (SF-539 CNS): 37.8 µM | GI50 (UACC-257 melanoma): 21.5 µM | TGI (UACC-257 melanoma): 71.4 µM | GI50 (HL-60(TB) leukemia): 15.3 µM | TGI (HL-60(TB) leukemia): 38.4 µM | GI50 (KM12 colon): 23.5 µM | TGI (KM12 colon): 62.4 µM

[O-]c1c2cc(-[n+]3c(-c4ccccc4)cc(-c4ccccc4)cc3-c3ccccc3)cc1CO[C@@H](c1ccccc1)[C@H](c1ccccc1)OCc1cccc(n1)CO[C@@H](c1ccccc1)[C@H](c1ccccc1)OC2
TGI (UACC-62 melanoma): 1.68 µM
